Here are results for seven compounds from ChEMBL document CHEMBL4613230, “Antifungal Sesquiterpenoids, Rhodocoranes, from Submerged Cultures of the Wrinkled Peach Mushroom, Rhodotus palmatus” (J Nat Prod, 2020).

≈ marks a conversion by molar mass, not a printed value. Calls of active or inactive are those of the source. The calls are words filed in the database; no cut-off is given here.

The test system of one assay is Escherichia coli. Briefly: Antimicrobial activity against Escherichia coli harboring TolC mutant by serial dilution assay. Type of assay: functional.
The test system of another assay is Bacillus subtilis. Briefly: Antimicrobial activity against Bacillus subtilis DSM 10 by serial dilution assay. Type of assay: functional.
The test system of the next assay is Micrococcus luteus. Description: Antimicrobial activity against Micrococcus luteus DSM 1790 by serial dilution assay. The assay is classed as functional.
The subject of another assay is Mucor plumbeus. Briefly: Antimicrobial activity against Mucor plumbeus MUCL49355 by serial dilution assay. Type of assay: functional.
Another assay has as its system Rhodotorula glutinis. Briefly: Antimicrobial activity against Rhodotorula glutinis DSM 10134 by serial dilution assay. The assay is classed as functional, organism-based.
The subject of the next assay is Staphylococcus aureus. Briefly: Antimicrobial activity against Staphylococcus aureus DSM346 by serial dilution assay. Type of assay: functional.
A further assay deals with KB 3-1. Briefly: Cytotoxicity against human KB3-1 cells by MTT assay. The assay is classed as functional, cell-based.
Another assay concerns L929. Briefly: Cytotoxicity against mouse L929 cells by MTT assay. The assay is classed as cell-based. On the technique in general: Tetrazolium assays rely on reduction of a dye to a coloured formazan, in cell work by metabolically active cells.
The subject of the next assay is A-431. Description: Cytotoxicity against human A431 cells by MTT assay. Type of assay: functional, cell-based.
For a further assay, the system named is MCF7. Description: Cytotoxicity against human MCF7 cells by MTT assay. Type of assay: functional, cell-based.

Regarding `CC1=C/C(=C2/[C@H](C)CC[C@@H]2C(C)C)OC1=O`, the MIC in the assay with Escherichia coli is 33.3 to 66.7 µg/mL (≈ 151 to 303 µM); in the assay on Bacillus subtilis, 33.3 to 66.7 µg/mL (≈ 151 to 303 µM); with Micrococcus luteus it was 33.3 to 66.7 µg/mL (≈ 151 to 303 µM); in the assay on Mucor plumbeus it was 8.3 µg/mL (≈ 37.7 µM); with Staphylococcus aureus, 33.3 to 66.7 µg/mL (≈ 151 to 303 µM). The result in the assay on Rhodotorula glutinis was Active.

Consider `CC1=C/C(=C2/[C@H](C)CC[C@@H]2[C@H](C)CO)OC1=O`, for which the MIC against Mucor plumbeus is 8.3 µg/mL (≈ 35.1 µM). In addition, the outcome in the assay with Rhodotorula glutinis was Active.

On to `CC1=C(O)C(=O)[C@]23C(=O)[C@H]1[C@H](O)[C@@H](C)[C@H]2CC[C@H]3C`, for which, in the assay with Rhodotorula glutinis, the result was Active.

With `Cc1cc([C@]23OC[C@@H](C)[C@H]2CC[C@H]3C)oc(=O)c1O`, in the assay on Rhodotorula glutinis, the outcome was Active.

As to `CC1=CC(=O)[C@]2(C1=O)[C@H](C)CC[C@@H]2[C@H](C)CO`, the result in the assay on Rhodotorula glutinis was Active.

For the compound `CC1=C/C(=C2\[C@H](C)CC[C@@H]2[C@H](C)CO)OC1=O`, the result in the assay on Rhodotorula glutinis was Active.

In the case of `Cc1cc(C2=C(C(C)C)CC[C@H]2C)oc(=O)c1O`, the minimal inhibitory concentration (MIC) in the assay on Escherichia coli, in the assay on Bacillus subtilis, with Micrococcus luteus and in the assay with Staphylococcus aureus was 33.3 to 66.7 µg/mL (≈ 134 to 269 µM) each time. Further, the concentration for half-maximal inhibition (IC50) was determined as 2.9 µM with KB 3-1, 5.6 µM in the assay on L929, 12 µM in the assay with A-431 and 9.3 µM in the assay on MCF7. The outcome with Rhodotorula glutinis was Active.

One may read the MIC as the least concentration at which growth counts as inhibited. Lower therefore signals a more susceptible organism. As usually defined, the IC50 is the point on the concentration scale where inhibition reaches its midpoint. A higher IC50 goes with weaker potency in that assay.
